Data as given in paper PMC7170901, “Design and efficient synthesis of pyrazoline and isoxazole bridged indole C-glycoside hybrids as potential anticancer agents” (Scientific Reports, 2020).

Columns and labels:
Type in all cases: cell-based
[1] = MTT cell viability assay in normal MCF-10A cells; conditions: human, MCF-10A normal mammary epithelial cells, read-out: Cell Viability (%) ± SD
Source text: (§1) MDA-MB-231 represents a specific subtype, known as the triple negative breast cancer (TNBC). […] We also included normal mammary epithelial MCF-10A cells in our experiments to confirm if the growth-inhibitory activities of the selected compounds are truly cancer cell-specific. […] Furthermore, none of these compounds did have any growth inhibitory activity against normal breast epithelial cell (MCF-10A). The IC50 values for these compounds against MDA-MB-231 cells (Fig. 2) are also included in Table 4 for comparison. Cell viability assay was performed as per standard protocols. After 72 h of cell incubation in the presence or absence of each compound, cell viability was evaluated by using MTT ((3-(4,5-dimethylthiazol-2-yl)-2,5-diphenyltetrazolium bromide)) (Himedia Pvt. Ltd, India). In brief, this is a homogeneous, colorimetric method for determining the number of viable cells in proliferation, cytotoxicity or chemosensitivity assays. MTT is bio reduced by cells into a formazan product that is […]. After 72 h of compound treatment, the medium was removed and 100 μL of MTT (0.5 mg ml^−1 in media) was added to the cells and kept in the dark for 3 h at 37 °C in the CO2 incubator and the formazan formed was dissolved in 100 μL DMSO (Dimethyl Sulfoxide). The absorbance of the formazan product at 595 nm was measured directly from 96-well assay plates without additional processing using a multimode plate reader (Bio-Rad) (iMark, India), as absorbance is directly proportional to the number of viable cells in culture. The percentage of viable cells in each group is determined with respect to the untreated control cells.

MCF-7 cells = experiment: LDH cytotoxicity assay; conditions: MCF-7, 25 µM; for cytotoxicity at 25 µM: Homo sapiens, MCF7, 48 h, read-out: % Cytotoxicity (LDH release relative to maximum LDH control); for % Cytotoxicity (LDH release relative to maximum LDH control): 48 h, 25 µM
Source text: When living cells treated with a cytotoxic compound, they could either stop growing and dividing, or die through either of two distinct processes i.e. necrosis or apoptosis. Basically, cells undergoing necrosis (accidental cell death) swell and lose membrane integrity before shutting down and releasing their intracellular contents into the surrounding environment. This type of cell death is usually triggered by external factors such as toxic chemical or traumatic physical events. When the cell membranes are damaged or compromised in any way, lactate dehydrogenase (LDH), a soluble yet stable enzyme found inside every living cell, gets released into the surrounding extracellular space. The presence of this enzyme in the culture medium can be used as a cell death marker. The relative amounts of live and dead cells within the medium can then be quantitated by measuring the amount of released LDH using a colorimetric or fluorometric LDH cytotoxicity assay.
Cytotoxicity was assessed with an LDH-cytotoxicity detection kit (Hi media, CCK036), Assays was performed according to assay protocol. Compound was taken at 25 μM concentration. The % of Cytotoxicity was calculated by this formula.
% Cytotoxicity = 100 × A − C/B − C, Where, A = Average absorbance of test. Average absorbance of background control (or vehicle control if applicable), B = Average absorbance of maximum LDH control − Average absorbance of volume correction control C = Average absorbance of untreated control − Average absorbance of background control.
Lactate Dehydrogenase Cell Assay Materials & Methods: (Himedia, product code; […]
Lactate dehydrogenase (LDH) is a cytoplasmic enzyme present in all mammalian cells. Plasma membrane of live cells is impermeable to LDH. However it is rapidly released into the culture medium when plasma membrane is damaged. The quantity of the leaked LDH is used as a measure of cell cytotoxicity. Due to low molecular weight (35kDa) LDH is easily released from the cells even with very minor damage or perturbations in the membrane. This makes the LDH release assay very sensitive.
This Kit has been designed for rapid determination of cell cytotoxicity using an enzyme coupled […]
Lactate Dehydrogenase (LDH) is based on an enzyme coupled reaction in which the LDH released from cells with damaged membrane reduces the tetrazolium dye to a colored formazan product. The reaction takes place in two steps - Step 1:
LDH catalyzes the conversion of lactate to pyruvate via reduction of NAD+ to NADH.
NADH thus generated reduces the tetrazolium dye to a colored formazan product which can be measured spectrophotometrically.
• Kit contents: CCK036(A) LDH reagent 5 x 5ml -20 °C in dark CCK036(B) Lysis solution 5ml -20 °C in dark
CCK036(C) Stop solution 25ml -20 °C in dark
• Cells in appropriate medium
• Adjustable pipettes and a repeat pipettor
• 96-well plate for culturing the cells
• 96-well plate reader capable of measuring the Absorbance at 450nm and more than […]
It is necessary to include different types of controls depending on application of LDH assay.
1. Maximum LDH control: It is recommended to perform maximum LDH estimation to determine total amount of LDH present in the cells.
2. Background control: Significant amount of LDH is present in the serum used for supplementing the culture medium. This contributes to the background absorbance / […]
without cells. Absorbance/fluorescence of background control wells should be subtracted from absorbance / fluorescence values of experimental wells to get corrected
3. Untreated control: Untreated control, also known as vehicle control should be included in the assay to obtain LDH values generated due to the solvent in which test compound is […]
(1 picture or pasted object on this page, not shown here) […]
dissolved. Untreated control wells contain the solvent at a concentration used for dissolving […]
• Preparation of cells: Freshly harvested MCF-7 cells for assay. Seeded in the 96well […]

MDA-MB-453 cells = experiment: MTT cell viability assay in MDA-MB-453 cells; conditions: Homo sapiens, read-out: Cell Viability (%) ± SD; for viability at 1 µM: MDA-MB-453, 1 µM; for viability at 10 µM: MDA-MB-453, 10 µM; for viability at 25 µM: MDA-MB-453, 25 µM
Source text: as §1

O=C(/C=C/c1c[nH]c2ccccc12)C[C@@H]1O[C@H](CO)[C@@H](O)[C@H](O)[C@H]1O [Compound 9, (E)-4-(1H-indol-3-yl)-1-((2S,3R,4R,5S,6R)-3,4,5-trihydroxy-6-(hydroxymethyl)tetrahydro-2H-pyran-2-yl)but-3-en-2-one]
viability at 72 h, 25 µM [1]: 87.6 ± 1.5%
viability at 72 h, 50 µM [1]: 81.3 ± 2.9%
viability at 72 h, 100 µM [1]: 84.2 ± 3%
cytotoxicity at 25 µM (MCF-7 cells): 12.9%
% Cytotoxicity (LDH release relative to maximum LDH control) (MCF-7 cells): 13%
viability at 1 µM (MDA-MB-453 cells): 80.6 ± 8%
viability at 10 µM (MDA-MB-453 cells): 76.4 ± 5.4%
viability at 25 µM (MDA-MB-453 cells): 96.1 ± 35.7%

O=C(/C=C/c1c[nH]c2ccc(Cl)cc12)C[C@@H]1O[C@H](CO)[C@@H](O)[C@H](O)[C@@H]1O [Compound 20, (E)-4-(5-chloro-1H-indol-3-yl)-1-((2S,3S,4R,5S,6R)-3,4,5-trihydroxy-6-(hydroxymethyl)tetrahydro-2H-pyran-2-yl)but-3-en-2-one]
viability at 72 h, 25 µM [1]: 85.8 ± 5.3%
viability at 72 h, 50 µM [1]: 78.8 ± 3%
viability at 72 h, 100 µM [1]: 36.5 ± 3.4%
cytotoxicity at 25 µM (MCF-7 cells): 7.78%
% Cytotoxicity (LDH release relative to maximum LDH control) (MCF-7 cells): 8%
viability at 1 µM (MDA-MB-453 cells): 105 ± 8.1%
viability at 10 µM (MDA-MB-453 cells): 74.8 ± 1.5%
viability at 25 µM (MDA-MB-453 cells): 66.4 ± 3.2%

OC[C@H]1O[C@@H](CC2=NNC(c3c[nH]c4ccccc34)C2)[C@H](O)[C@@H](O)[C@H]1O (stereo partly drawn) [Compound 25, (2 S,3 R,4 R,5 R,6 R)-2-((5-(1H-indol-3-yl)-4,5-dihydro-1H-pyrazol-3-yl)methyl)-6-(hydroxy-methyl)tetrahydro-2H-pyran-3,4,5-triol]
viability at 72 h, 25 µM [1]: 87.6 ± 2.2%
viability at 72 h, 50 µM [1]: 84.6 ± 1.7%
viability at 72 h, 100 µM [1]: 82.4 ± 2.6%
cytotoxicity at 25 µM (MCF-7 cells): 21.8%
% Cytotoxicity (LDH release relative to maximum LDH control) (MCF-7 cells): 22%
viability at 1 µM (MDA-MB-453 cells): 88.8 ± 5.2%
viability at 10 µM (MDA-MB-453 cells): 78.3 ± 4.7%
viability at 25 µM (MDA-MB-453 cells): 69.6 ± 5.3%

O=[N+]([O-])c1ccc2[nH]cc(-c3cc(C[C@@H]4O[C@H](CO)[C@@H](O)[C@H](O)[C@H]4O)no3)c2c1 [Compound 34, (2 R,3 S,4 R,5 R,6 S)-2-(hydroxymethyl)-6-((5-(5-nitro-1H-indol-3-yl)isoxazol-3-yl)methyl) tetrahydro-2H-pyran-3,4,5-triol]
viability at 72 h, 25 µM [1]: 87.6 ± 1.5%
viability at 72 h, 50 µM [1]: 80.1 ± 2.8%
viability at 72 h, 100 µM [1]: 84.2 ± 3%
cytotoxicity at 25 µM (MCF-7 cells): 31.2%
% Cytotoxicity (LDH release relative to maximum LDH control) (MCF-7 cells): 31%
viability at 1 µM (MDA-MB-453 cells): 92.5 ± 4.6%
viability at 10 µM (MDA-MB-453 cells): 80.9 ± 1.2%
viability at 25 µM (MDA-MB-453 cells): 66.8 ± 1.7%

OC[C@H]1O[C@@H](Cc2cc(-c3c[nH]c4ccccc34)on2)[C@H](O)[C@@H](O)[C@H]1O [Compound 37, (2 S,3 R,4 R,5 R,6 R)-2-((5-(1H-indol-3-yl)isoxazol-3-yl)methyl)-6-(hydroxymethyl) tetrahydro-2H-pyran-3,4,5-triol]
viability at 72 h, 25 µM [1]: 86.8 ± 2.8%
viability at 72 h, 50 µM [1]: 83.2 ± 5.8%
viability at 72 h, 100 µM [1]: 81 ± 1.5%
cytotoxicity at 25 µM (MCF-7 cells): 36.4%
viability at 1 µM (MDA-MB-453 cells): 95.4 ± 4.8%
viability at 10 µM (MDA-MB-453 cells): 76.4 ± 5.4%
viability at 25 µM (MDA-MB-453 cells): 96.1 ± 35.7%
